Data published in patent US10894784B2, “Heteroarylbenzimidazole compounds” (BAYER PHARMA AKTIENGESELLSCHAFT, priority 2015, dated 2021).

Biological target: TBK1 (Homo sapiens (Human), UniProt Q9UHD2)
Assay: TBK1 low ATP kinase assay (in vitro assay 1)
Format: biochemical
Details: in vitro assay 1, read-out: TBK1 low ATP kinase assay IC50

Chain of TBK1 (Q9UHD2 whole entry): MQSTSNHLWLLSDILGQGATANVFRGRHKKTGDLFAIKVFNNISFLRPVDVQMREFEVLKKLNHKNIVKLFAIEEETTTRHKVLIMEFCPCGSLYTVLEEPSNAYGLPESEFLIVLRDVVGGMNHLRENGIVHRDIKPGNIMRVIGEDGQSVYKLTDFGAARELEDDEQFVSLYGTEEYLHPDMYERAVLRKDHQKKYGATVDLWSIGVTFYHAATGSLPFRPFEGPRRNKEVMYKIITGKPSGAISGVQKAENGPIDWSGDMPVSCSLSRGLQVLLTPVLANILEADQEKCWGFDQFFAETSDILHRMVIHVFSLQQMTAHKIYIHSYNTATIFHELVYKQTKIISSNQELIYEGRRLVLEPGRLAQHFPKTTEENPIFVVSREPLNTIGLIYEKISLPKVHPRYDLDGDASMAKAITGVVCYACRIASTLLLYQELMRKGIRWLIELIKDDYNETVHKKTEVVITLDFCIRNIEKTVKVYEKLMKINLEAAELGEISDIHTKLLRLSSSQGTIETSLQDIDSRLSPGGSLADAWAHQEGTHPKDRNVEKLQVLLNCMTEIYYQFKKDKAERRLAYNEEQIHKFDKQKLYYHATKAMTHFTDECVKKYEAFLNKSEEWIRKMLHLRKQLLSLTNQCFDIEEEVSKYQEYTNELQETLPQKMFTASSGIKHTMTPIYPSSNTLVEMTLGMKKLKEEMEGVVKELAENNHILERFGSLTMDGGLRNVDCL

IC50 [nM]	Structure (SMILES)
394	COc1ccc(-c2ccc3nc(Nc4cc(CN5CCN(C(=O)C6CC6)CC5)ccn4)[nH]c3c2)nn1 [Example 47.01, cyclopropyl{4-[(2-{[6-(6-methoxypyridazin-3-yl)-1H-benzimidazol-2-yl]amino}pyridin-4-yl)methyl]piperazin-1-yl}methanone]
45.9	O=C(CC(F)(F)F)N1CCN(Cc2ccnc(Nc3nc4ccc(-c5ncnc(NC6CCC6)c5F)cc4[nH]3)c2)CC1 [Example 194.02, 1-(4-{[2-({6-[6-(cyclobutylamino)-5-fluoropyrimidin-4-yl]-1H-benzimidazol-2-yl}amino)pyridin-4-yl]methyl}piperazin-1-yl)-3,3,3-trifluoropropan-1-one]
1.4	CC(c1ccnc(Nc2nc3ccc(-c4cc(N5CCC5)ncn4)cc3[nH]2)c1)N1CCN(C(=O)OC(C)(C)C)CC1 (single isomer, unassigned) [Example 115.01, tert-butyl 4-{(1R or 1S)-1-[2-({6-[6-(azetidin-1-yl)pyrimidin-4-yl]-1H-benzimidazol-2-yl}amino)pyridin-4-yl]ethyl}piperazine-1-carboxylate]
3010	CN(C)c1ncnc(-c2ccc3nc(Nc4cc(CN5CCN(C(=O)OC(C)(C)C)CC5)ccn4)[nH]c3c2)c1Cl [Example 179.01, tert-butyl 4-{[2-({6-[5-chloro-6-(dimethylamino)pyrimidin-4-yl]-1H-benzimidazol-2-yl}amino)pyridin-4-yl]methyl}piperazine-1-carboxylate]
15	CC(C)c1cc(-c2ccc3nc(Nc4cc(CN5CCN(C(=O)C6CC6)CC5)ccn4)[nH]c3c2)ncn1 [Example 78.02, cyclopropyl(4-{[2-({6-[6-(propan-2-yl)pyrimidin-4-yl]-1H-benzimidazol-2-yl}amino)pyridin-4-yl]methyl}piperazin-1-yl)methanone]
17.8	CC(C)Nc1ncnc(-c2ccc3nc(Nc4cc(CN5CCN(C(=O)C6CC6)CC5)ccn4)[nH]c3c2)c1F [Example 193.03, cyclopropyl(4-{[2-({6-[5-fluoro-6-(propan-2-ylamino)pyrimidin-4-yl]-1H-benzimidazol-2-yl}amino)pyridin-4-yl]methyl}piperazin-1-yl)methanone]
988	Cn1ccc(-c2ccc3nc(Nc4cc(CN5CCN(C(=O)C6CC6)CC5)ccn4)[nH]c3c2)n1 [Example 40.03, cyclopropyl{4-[(2-{[6-(1-methyl-1H-pyrazol-3-yl)-1H-benzimidazol-2-yl]amino}pyridin-4-yl)methyl]piperazin-1-yl}methanone]
624	COc1cnc(C(=O)N(C)C)cc1-c1ccc2nc(Nc3cc(CN4CCN(C(=O)C5CC5)CC4)ccn3)[nH]c2c1 [Example 08.01, 4-{2-[(4-{[4-(cyclopropylcarbonyl)piperazin-1-yl]methyl}pyridin-2-yl)amino]-1H-benzimidazol-6-yl}-5-methoxy-N,N-dimethylpyridine-2-carboxamide]
31.7	COc1cncnc1-c1ccc2nc(Nc3cc(C(C)N4CCN(C(=O)C5CC5)CC4)ccn3)[nH]c2c1 (single isomer, unassigned) [Example 35.03.03.B, cyclopropyl{4-[(1S or 1R)-1-(2-{[6-(5-methoxypyrimidin-4-yl)-1H-benzimidazol-2-yl]amino}pyridin-4-yl)ethyl]piperazin-1-yl}methanone]
1	CC(c1ccnc(Nc2nc3ccc(-c4cc(N5CC(F)(F)C5)ncn4)cc3[nH]2)c1)N1CCN(C(=O)C2(C(F)(F)F)CC2)CC1 (single isomer, unassigned) [Example 116.04, (4-{(1R or 1S)-1-[2-({6-[6-(3,3-difluoroazetidin-1-yl)pyrimidin-4-yl]-1H-benzimidazol-2-yl}amino)pyridin-4-yl]ethyl}piperazin-1-yl)[1-(trifluoromethyl)cyclopropyl]methanone]
5.93	CC(c1ccnc(Nc2nc3ccc(-c4cc(OCC(F)(F)F)ncn4)cc3[nH]2)c1)N1CCN(C(=O)C2CC2)CC1 (single isomer, unassigned) [Example 119.03, cyclopropyl(4-{(1R or 1S)-1-[2-({6-[6-(2,2,2-trifluoroethoxy)pyrimidin-4-yl]-1H-benzimidazol-2-yl}amino)pyridin-4-yl]ethyl}piperazin-1-yl)methanone]
478	Cc1nccc(-c2ccc3nc(Nc4cc(CN5CCN(C(=O)C6CC6)CC5)cc(C(F)(F)F)n4)[nH]c3c2)n1 [Example 24.03.01, cyclopropyl(4-{[2-{[6-(2-methylpyrimidin-4-yl)-1H-benzimidazol-2-yl]amino}-6-(trifluoromethyl)pyridin-4-yl]methyl}piperazin-1-yl)methanone]
497	Cc1noc(-c2ccc3nc(Nc4cc(CN5CCN(C(=O)C6CC6)CC5(C)C)ccn4)[nH]c3c2)n1 [Example 16.04.04, cyclopropyl{3,3-dimethyl-4-[(2-{[6-(3-methyl-1,2,4-oxadiazol-5-yl)-1H-benzimidazol-2-yl]amino}pyridin-4-yl)methyl]piperazin-1-yl}methanone]
11	Cc1nccc(-c2ccc3nc(Nc4cc(C(C)N5CCN(C(=O)C6CCC6)CC5)ccn4)[nH]c3c2)n1 (single isomer, unassigned) [Example 24.05.02.A, cyclobutyl{4-[(1R or 1S)-1-(2-{[6-(2-methylpyrimidin-4-yl)-1H-benzimidazol-2-yl]amino}pyridin-4-yl)ethyl]piperazin-1-yl}methanone]
> 20000	Cc1noc(-c2ccc3nc(Nc4cc(CN5CCN(c6ccc(F)cc6F)CC5)ccn4)[nH]c3c2)n1 [Example 101.11, N-(4-{[4-(2,4-difluorophenyl)piperazin-1-yl]methyl}pyridin-2-yl)-6-(3-methyl-1,2,4-oxadiazol-5-yl)-1H-benzimidazol-2-amine]
868	Cc1nc(-c2ccc3nc(Nc4cc(CN5CCN(C(=O)CC(F)(F)F)CC5)ccn4)[nH]c3c2)cc(N(C)C)n1 [Example 190.02, 1-(4-{[2-({6-[6-(dimethylamino)-2-methylpyrimidin-4-yl]-1H-benzimidazol-2-yl}amino)pyridin-4-yl]methyl}piperazin-1-yl)-3,3,3-trifluoropropan-1-one]
45.4	Cc1nccc(-c2ccc3nc(Nc4cc(C(C)N5CCN(C(=O)CC6CC6)CC5)ccn4)[nH]c3c2)n1 (single isomer, unassigned) [Example 24.05.03.A, 2-cyclopropyl-1-{4-[(1R or 1S)-1-(2-{[6-(2-methylpyrimidin-4-yl)-1H-benzimidazol-2-yl]amino}pyridin-4-yl)ethyl]piperazin-1-yl}ethanone]
43.2	Cc1nccc(-c2ccc3nc(Nc4cc(CN5CCN(C(=O)C6CC6)CC5)ccn4)[nH]c3c2)n1 [Example 24.01.03, cyclopropyl{4-[(2-{[6-(2-methylpyrimidin-4-yl)-1H-benzimidazol-2-yl]amino}pyridin-4-yl)methyl]piperazin-1-yl}methanone]
6.6	CSc1cc(-c2ccc3nc(Nc4cc(CN5CCN(C(=O)CC(F)(F)F)CC5)ccn4)[nH]c3c2)ncn1 [Example 95.01, 3,3,3-trifluoro-1-(4-{[2-({6-[6-(methylsulfanyl)pyrimidin-4-yl]-1H-benzimidazol-2-yl}amino)pyridin-4-yl]methyl}piperazin-1-yl)propan-1-one]
3810	COc1ncccc1-c1ccc2nc(Nc3cc(CN4CCN(C(=O)C5CC5)CC4)ccn3)[nH]c2c1 [Example 15.03, cyclopropyl{4-[(2-{[6-(2-methoxypyridin-3-yl)-1H-benzimidazol-2-yl]amino}pyridin-4-yl)methyl]piperazin-1-yl}methanone]
860	CC(c1ccnc(Nc2nc3ccc(-c4cc(C(F)(F)F)nn4C)cc3[nH]2)c1)N1CCN(C(=O)CC(F)(F)F)CC1 (single isomer, unassigned) [Example 88.02, 3,3,3-trifluoro-1-(4-{(1R or 1S)-1-[2-({6-[1-methyl-3-(trifluoromethyl)-1H-pyrazol-5-yl]-1H-benzimidazol-2-yl}amino)pyridin-4-yl]ethyl}piperazin-1-yl)propan-1-one]
250	Cc1nccc(-c2ccc3nc(Nc4cc(CN5CCN(C(=O)C6CC6)CC5)ccn4)[nH]c3c2)c1Cl [Example 130.03, {4-[(2-{[6-(3-chloro-2-methylpyridin-4-yl)-1H-benzimidazol-2-yl]amino}pyridin-4-yl)methyl]piperazin-1-yl}(cyclopropyl)methanone]
2.1	O=C(CC(F)(F)F)N1CCN(Cc2ccnc(Nc3nc4ccc(-c5cc(NC6CC6)ncn5)cc4[nH]3)c2)CC1 [Example 151.02, 1-(4-{[2-({6-[6-(cyclopropylamino)pyrimidin-4-yl]-1H-benzimidazol-2-yl}amino)pyridin-4-yl]methyl}piperazin-1-yl)-3,3,3-trifluoropropan-1-one]
577	CC(C)Cc1nc(-c2ccc3nc(Nc4cc(CN5CCN(C(=O)OC(C)(C)C)CC5)ccn4)[nH]c3c2)n(C)n1 [Example 42.01, tert-butyl 4-{[2-({6-[1-methyl-3-(2-methylpropyl)-1H-1,2,4-triazol-5-yl]-1H-benzimidazol-2-yl}amino)pyridin-4-yl]methyl}piperazine-1-carboxylate]
2.99	CC(c1ccnc(Nc2nc3ccc(-c4ccncn4)cc3[nH]2)c1)N1CCN(C(=O)C2CCC2)CC1 (single isomer, unassigned) [Example 23.05.03.A, cyclobutyl{4-[(1R or 1S)-1-(2-{[6-(pyrimidin-4-yl)-1H-benzimidazol-2-yl]amino}pyridin-4-yl)ethyl]piperazin-1-yl}methanone]
0.64	CC(c1ccnc(Nc2nc3ccc(-c4cnn(CC5(Cl)CC5)c4)cc3[nH]2)c1)N1CCN(C(=O)CC(F)(F)F)CC1 (single isomer, unassigned) [Example 69.02, 1-{4-[(1R or 1S)-1-{2-[(6-{1-[(1-chlorocyclopropyl)methyl]-1H-pyrazol-4-yl}-1H-benzimidazol-2-yl)amino]pyridin-4-yl}ethyl]piperazin-1-yl}-3,3,3-trifluoropropan-1-one]
